What is called IC50 is the concentration needed to halve the response being measured.

The text below walks through data of patent US20130079348A1, “COMPOUNDS THAT MODULATE INTRACELLULAR CALCIUM” (CalciMedica, Inc., priority 2010, published 2013).

Bounds are passed on as bounds.

Assay [1] concerns the target STIM1 and Orai1 in HEK293 cells (Homo sapiens, UniProt Q96D31). To be noted: HEK293 cells expressing STIM1 and Orai1; cited from earlier work.
In the next assay the test system is Jurkat cells. To be noted: cited from earlier work.
Assay [2] concerns the target T1, recombinant human STIM1 and Orai1 (HEK-293 cells) (Homo sapiens, UniProt Q96D31).
T1 construct: c-myc (C); expressed in transfected cells; host or cells: HEK-293
The experiment in a line: Fluorescence-based assay of store-operated calcium entry in Orai1/STIM1 stable cells. The format is cell-based. To be noted: concentration that inhibited 50% of the Peak-Basal fluorescence signal; 30 min compound incubation; read-out: IC50(μM) JR251. The protocol:
A. Fluorescence-based Assay of Store-Operated Calcium Entry in Orai1/STIM1 Stable Cells.
Cells stably expressing recombinant human STIM1 and Orai1 were generated by transfecting a human Orai1 expression plasmid (pcDNA3.1-Orai1-cmyc) into HEK-293 cells stably overexpressing human STIM1 (Roos et al. 2005 JCB 169(3): 435-445). Colonies of cells stably expressing both STIM1 and Orai1 proteins were selected and then subcloned by limiting dilution. Cells were cultured at 37° C./6% CO2 in complete medium with 10% FBS and appropriate selection markers.
The day prior to performing the assay Orai1/STIM1 stable cells were plated in 50 μL of complete medium at 90-95% confluence in a 384 well plate. Cells were grown at 37° C./6% CO2 overnight. On the day of the assay, 1.5 μM fluo-4-AM (Invitrogen) in complete medium was added to the cells, which were then incubated for 1 hour at RT. Cells were washed once in Ca^2+-free HBSS (Hank's buffered saline solution) and 35 μl of Ca^2+-free HBSS was added to each well. Test compounds were added to wells in a 10 μL Ca^2+-free HBSS solution, prepared at 4.5× the desired final concentration, and incubated for 30 minutes at RT. The initial baseline fluorescence signal was then measured with a FLIPR^384 (Molecular Devices) plate reader. Calcium entry was initiated by adding 5 μl of 10× CaCl2 (10 mM) in HBSS, and changes in cellular fluorescence were measured with the FLIPR^384 plate reader. In each well, the magnitude of the fluorescence signal as a result of calcium entry into the cell was determined by calculating the difference between the peak fluorescence signal measured after calcium addition and the initial baseline fluorescence signal (designated Peak-Basal). IC50 values were typically calculated as the concentration that inhibited 50% of the Peak-Basal signal (Table A).

A further assay deals with RBL-2H3 cells. Briefly: Fluorescence-based assay of store-operated calcium entry in RBL-2H3 cells. The format is cell-based. To be noted: Rattus norvegicus, thapsigargin store depletion, 50% of the Upslope inhibited. The protocol: B. Fluorescence-based Assay of Store-Operated Calcium Entry in RBL-2H3 Cells.
RBL-2H3 cells were obtained from ATCC and maintained in complete medium with 10% FBS at 37° C./6% CO2.
The day prior to performing the assay, RBL-2H3 cells are plated in 50 μL of complete medium in a 384 well plate. Cells are grown at 37° C./6% CO2 overnight and grow to 50-60% confluence by the next day. On the assay day, 1.5 μM Fluo-4-AM dye (Invitrogen) in complete medium is added and incubated for 1 hour at RT. Cells are washed twice in Ca^2+-free HBSS buffer and 35 μL Ca^2+-free HBSS buffer is added to each well. 10 μL of a test compound prepared in a Ca^2+-free HBSS solution at 4.5× of the desired concentration is added to a well and incubated for 5 minutes at RT. 10 μL of thapsigargin prepared in a Ca^2+-free HBSS solution at 5.5× of the desired concentration (5.5 uM) is added to each well and incubated for an additional 25 minutes. The initial baseline fluorescence signal is measured with a FLIPR^384 (Molecular Devices) plate reader. 5 μL of 12× calcium in HBSS (12 mM) is added and changes in cellular fluorescence are measured with the FLIPR^384 plate reader. In each well, the change in the fluorescent signal as a function of time due to calcium entry into the cell is determined by calculating the difference between the fluorescent signal measured 7 seconds after calcium addition and the initial baseline fluorescence signal at time zero (t=0). This parameter is designated Upslope. The IC50 value is calculated as the concentration at which 50% of the Upslope is inhibited.

T1 sequence (Q96D31 whole entry): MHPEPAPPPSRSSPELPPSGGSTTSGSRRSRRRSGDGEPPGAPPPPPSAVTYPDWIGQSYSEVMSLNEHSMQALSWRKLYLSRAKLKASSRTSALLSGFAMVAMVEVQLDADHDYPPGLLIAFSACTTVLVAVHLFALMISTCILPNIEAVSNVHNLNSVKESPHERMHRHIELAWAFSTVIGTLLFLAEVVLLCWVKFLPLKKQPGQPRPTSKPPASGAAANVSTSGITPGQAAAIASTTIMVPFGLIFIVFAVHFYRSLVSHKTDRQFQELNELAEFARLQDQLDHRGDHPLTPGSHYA
Chain of STIM1 and Orai1 in HEK293 cells (Q96D31 whole entry): as above

`NCCOB(c1ccccc1)c1ccccc1` [2-aminoethoxydiphenylborate]: the “block of store-operated Ca2+ entry” value in assay [1] is “completely blocked”.

In the case of `Cc1nnsc1C(=O)Nc1ccc(-n2nc(C(F)(F)F)cc2C(F)(F)F)cc1` [BTP-2], in the assay on Jurkat cells (Jurkat cells and colon cancer cells), the inhibition of proliferation result was “inhibits”. Besides, the “inhibition of SOCE” value in the assay with Jurkat cells (Jurkat cells) is “inhibits”.

Regarding `Cc1ccc(-c2scc(NC(=O)c3cc4c(F)cccn4n3)c2C(=O)O)c(F)c1` [Compound 1], the IC50 (in assay [2]; in the assay on RBL-2H3 cells) was no more than 0.5 µM throughout.

On to `Cc1ccc(-c2csc(NC(=O)c3cc4cccc(C)n4n3)c2C(=O)O)c(F)c1` [Compound 2], for which the IC50 (in assay [2]; with RBL-2H3 cells) was no more than 0.5 µM each time.

Take `Cc1ccc(-c2csc(NC(=O)c3cc4cccc(C)n4n3)c2C(=O)O)c(F)c1F` [Compound 3]: the IC50 in the assay on RBL-2H3 cells is no more than 0.5 µM.

As to `Cc1ccc(-c2csc(NC(=O)c3nn4ccccc4c3N)c2C(=O)O)c(F)c1F` [Compound 4], the IC50 in the assay on RBL-2H3 cells is 1 to 10 µM.

Regarding `O=C(Nc1scc(-c2ccc(Cl)cc2)c1C(=O)O)c1cc2c(F)cc(F)cn2n1` [Compound 5], the IC50 in assay [2] fell in the range of 1 to 10 µM; in the assay with RBL-2H3 cells, 0.5 to 1 µM.

For the compound `Cc1ccc(-c2csc(NC(=O)c3cc4c(F)cc(F)cn4n3)c2C(=O)O)c(F)c1F` [Compound 6], in the assay on RBL-2H3 cells, the IC50 lay within 0.5 to 1 µM.

On to `COc1cccn2nc(C(=O)Nc3scc(-c4ccc(Cl)cc4)c3C(=O)O)cc12` [Compound 7], for which the IC50 in the assay on RBL-2H3 cells is 0.5 to 1 µM.

As for `Cc1ccc(-c2csc(NC(=O)c3cc4ccc(F)cn4n3)c2C(=O)O)c(F)c1F` [Compound 8], the IC50 in the assay with RBL-2H3 cells fell in the range of 0.5 to 1 µM.

As to `COc1cccc2cc(C(=O)Nc3scc(-c4ccc(Cl)cc4)c3C(=O)O)nn12` [Compound 9], the IC50 in assay [2] fell in the range of 0.5 to 1 µM; with RBL-2H3 cells it was 1 to 10 µM.

On to `COc1cccn2nc(C(=O)Nc3scc(-c4ccc(C)c(F)c4F)c3C(=O)O)cc12` [Compound 10], for which, in the assay with RBL-2H3 cells, the IC50 was 0.5 to 1 µM.

With `Cc1ccc(-c2csc(NC(=O)c3nc4ccc(F)cc4s3)c2C(=O)O)c(F)c1F` [Compound 11], the IC50 (in assay [2]; in the assay on RBL-2H3 cells) was no more than 0.5 µM in each case.

For the compound `Cc1ccc(-c2csc(NC(=O)c3nc4ccc(F)cc4s3)c2C(=O)O)c(F)c1` [Compound 12], the IC50 in assay [2] is 0.5 to 1 µM; in the assay with RBL-2H3 cells it was no more than 0.5 µM.

As for `O=C(Nc1scc(-c2ccc(Cl)cc2F)c1C(=O)O)c1nc2c(F)cccc2s1` [Compound 13], the IC50 in assay [2] was 0.5 to 1 µM; with RBL-2H3 cells, no more than 0.5 µM.

For `Cc1ccc(-c2csc(NC(=O)c3nc4c(F)cccc4s3)c2C(=O)O)c(F)c1` [Compound 14], the IC50 (in assay [2]; in the assay with RBL-2H3 cells) was 0.5 to 1 µM throughout.

Regarding `Cc1ccc(-c2csc(NC(=O)c3nc4cc(C(F)(F)F)ccc4s3)c2C(=O)O)c(F)c1F` [Compound 15], the IC50 in the assay on RBL-2H3 cells lay in the range of 0.5 to 1 µM.

`Cc1ccc(-c2csc(NC(=O)c3nc4ccc(Br)cc4s3)c2C(=O)O)c(F)c1F` [Compound 16]: the IC50 in the assay with RBL-2H3 cells is no more than 0.5 µM.

In the case of `Nc1cccc2nc(C(=O)Nc3scc(-c4ccc(Cl)cc4)c3C(=O)O)sc12` [Compound 17], the IC50 (in assay [2]; with RBL-2H3 cells) was no more than 0.5 µM each time.

Regarding `Cc1ccc(-c2csc(NC(=O)c3nc4cccc(N)c4s3)c2C(=O)O)c(F)c1F` [Compound 18], the IC50 in assay [2] was 0.5 to 1 µM; with RBL-2H3 cells it was no more than 0.5 µM.

With `COc1ccc2sc(C(=O)Nc3scc(-c4ccc(Cl)cc4)c3C(=O)O)nc2c1` [Compound 19], the IC50 in assay [2] is 0.5 to 1 µM; in the assay on RBL-2H3 cells it was no more than 0.5 µM.

Take `COc1cccc2sc(C(=O)Nc3scc(-c4ccc(Cl)cc4)c3C(=O)O)nc12` [Compound 20]: the IC50 in assay [2] was no more than 0.5 µM; with RBL-2H3 cells, 0.5 to 1 µM.

Consider `O=C(Nc1scc(-c2ccc(Cl)cc2)c1C(=O)O)c1nc2cccc(Cl)c2s1` [Compound 21], for which the IC50 was 0.5 to 1 µM in assay [2] and no more than 0.5 µM with RBL-2H3 cells.

In the case of `Cc1ccc(-c2csc(NC(=O)c3nc4cccc(Cl)c4s3)c2C(=O)O)c(F)c1F` [Compound 22], the values for the IC50 (in assay [2]; in the assay with RBL-2H3 cells) were 0.5 to 1 µM and no more than 0.5 µM, respectively.

For the compound `Cc1ccc(-c2csc(NC(=O)c3sc4ccccc4[n+]3[O-])c2C(=O)O)c(F)c1F` [Compound 23], the IC50 in assay [2] is 0.5 to 1 µM; in the assay with RBL-2H3 cells, no more than 0.5 µM.

As for `CC(=O)Nc1cccc2nc(C(=O)Nc3scc(-c4ccc(Cl)cc4)c3C(=O)O)sc12` [Compound 24], the IC50 fell in the range of 1 to 10 µM in assay [2] and 0.5 to 1 µM with RBL-2H3 cells.

As for `Cc1ccc(-c2csc(NC(=O)c3nc4cccc(O)c4s3)c2C(=O)O)c(F)c1F` [Compound 25], the figures for the IC50 (in assay [2]; in the assay on RBL-2H3 cells) were 0.5 to 1 µM and 1 to 10 µM, respectively.

Regarding `Cc1ccc(-c2csc(NC(=O)c3c(O)ccc(F)c3F)c2C(=O)O)c(F)c1F` [Compound 26], the IC50 (in assay [2]; in the assay on RBL-2H3 cells) was no more than 0.5 µM in each case.

As to `Cc1ccc(-c2csc(NC(=O)c3cc(F)cc(F)c3O)c2C(=O)O)c(F)c1F` [Compound 27], the IC50 (in assay [2]; with RBL-2H3 cells) was no more than 0.5 µM throughout.

As to `O=C(O)c1c(-c2ccc(Cl)cc2)csc1NC(=O)N1Cc2cccc(F)c2C1` [Compound 28], the IC50 (in assay [2]; in the assay on RBL-2H3 cells) was no more than 0.5 µM in each case.

As to `Cc1ccc(-c2csc(NC(=O)c3ccc(F)c(F)c3O)c2C(=O)O)c(F)c1F` [Compound 29], the IC50 (in assay [2]; in the assay on RBL-2H3 cells) was no more than 0.5 µM throughout.
